Reference: article PMC8851638 (ACS Omega, 2022)

What was measured:
Assay in all cases: Agar well-diffusion antimicrobial sensitivity assay
[1] = tested on: K. pneumoniae (MDR00244); format: cell-based; conditions: 100 mg/mL in DMSO, 50 μL per well, ± SD
[2] = tested on: E. coli (MDR00501); format: cell-based; conditions: E. coli; 100 mg/mL in DMSO, 50 μL per well; ± SD
[3] = tested on: B. subtilis (MDR00423); format: cell-based; conditions: 100 mg/mL in DMSO, 50 μL per well, ± SD
[4] = tested on: S. epidermidis (MDR00223); format: cell-based, Staphylococcus epidermidis; conditions: S. epidermidis; 100 mg/mL in DMSO, 50 μL per well; ± SD
[5] = tested on: C. albicans100 (MDR00100); format: cell-based, Candida albicans; conditions: C. albicans100; 100 mg/mL in DMSO, 50 μL per well; ± SD
[6] = tested on: S. aureus (MDR00231); format: cell-based, Staphylococcus aureus; conditions: S. aureus; 100 mg/mL in DMSO, 50 μL per well; ± SD
[7] = tested on: A. baumannii (MDR00521); format: cell-based; conditions: 100 mg/mL in DMSO, 50 μL per well, ± SD
[8] = tested on: C. albicans200 (MDR00200); format: cell-based, Candida albicans; conditions: C. albicans200; 100 mg/mL in DMSO, 50 μL per well; ± SD

Measured: Inhibition Zone (IZ)

Cc1c(NN=C2SC3=C(C#N)C(c4ccccc4)C(C#N)=C(N)N3C2=O)c(=O)n(-c2ccccc2)n1C (stereo not shown) [Compound 16a, 5-Amino-2-(2-(1,5-dimethyl-3-oxo-2-phenyl-2,3-dihydro-1H-pyrazol-4-yl)hydrazono)-3-oxo-7-phenyl-2,3-dihydro-7H-thiazolo[3,2-a]pyridine-6,8-dicarbonitrile]
-ve: all assays above

Cc1c(NN=C2SC3=C(C#N)C(c4ccc(Cl)cc4)C(C#N)=C(N)N3C2=O)c(=O)n(-c2ccccc2)n1C (stereo not shown) [Compound 16b, 5-Amino-7-(4-chlorophenyl)-2-(2-(1,5-dimethyl-3-oxo-2-phenyl-2,3-dihydro-1H-pyrazol-4-yl)hydrazono)-3-oxo-2,3-dihydro-7H-thiazolo[3,2-a]pyridine-6,8-dicarbonitrile]
-ve: all assays above
